Measurements as given in patent publication US6849761B2, “Substituted naphthoic acid derivatives useful in the treatment of insulin resistance and hyperglycemia” (Wyeth, priority 2002, dated 2005).
Counter-ions that a name gives are not always drawn.

Target: T1, human-derived recombinant PTPase-1B (hPTP-1B) (Homo sapiens, UniProt P18031)
T1 sequence (P18031 1-435): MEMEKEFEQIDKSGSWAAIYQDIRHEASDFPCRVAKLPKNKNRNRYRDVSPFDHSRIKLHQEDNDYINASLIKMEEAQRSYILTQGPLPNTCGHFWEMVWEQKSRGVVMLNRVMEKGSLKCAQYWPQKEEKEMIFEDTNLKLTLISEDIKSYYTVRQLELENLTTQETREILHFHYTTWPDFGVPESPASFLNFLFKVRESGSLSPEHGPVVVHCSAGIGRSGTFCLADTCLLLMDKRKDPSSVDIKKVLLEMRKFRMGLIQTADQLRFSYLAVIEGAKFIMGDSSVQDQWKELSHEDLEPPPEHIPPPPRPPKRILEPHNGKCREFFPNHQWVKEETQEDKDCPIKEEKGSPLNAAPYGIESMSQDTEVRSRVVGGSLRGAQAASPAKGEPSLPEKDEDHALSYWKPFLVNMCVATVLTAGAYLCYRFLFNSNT
Assay: PTP-1B inhibition assay (DIFMUP fluorescence kinetic assay)
Format: biochemical
Settings: inhibitor at 40 μM; 20 μM DIFMUP; 1 nM enzyme; calculated from average velocity Va vs control
Procedure: Measurement of PTPase activity: Compounds are assayed in an enzyme activity-based assay. PTP-1B is known to dephosphorylate phosphopeptides. This assay is a fluorescence intensity based kinetic assay, taking advantage of a non-peptidyl substrate, 6,8-difluoro-4-methylumbelliferyl phosphate (DIFMUP). When excited at 358 nm, the dephosphorylated product of DIFMUP emits at 450 nm.
Examples 1-5 (set forth below) were analyzed as follows. The assay was conducted in black 384-well non-treated plates (Costar#3710). The assay buffer contained 50 mM 3,3-dimethyl glutaric acid, pH 7.0, 48 mM NaCl, 1 mM EDTA. Inhibitors were prepared as DMSO solution and diluted to desired concentrations using 50 mM HEPES, pH 7.4. PTP-1B was diluted to a 2.5 nM working stock using the assay buffer containing additional 0.001% (w/v) hydrogenated Triton X-100. DIFMUP was diluted to 40 μM using the assay buffer. 5 μl of inhibitor was first dispensed into assay plate. In cases of control reactions, 5 μl of the assay buffer was dispensed. This was followed by 25 μl of DIFMUP working stock. The reaction was then initiated by the addition of 20 μl of PTP-1B working stock. The final DIFMUP concentration was 20 μM (˜1.6×Km). The final enzyme concentration was 1 nM and the detergent concentration was 0.0004% (w/v). Typical inhibitor concentrations were from 0.08 to 40 μM. The reaction progress was monitored continuously for 30 min.
Calculations: For data analysis, the last five data points were used to obtain a slope corresponding to the estimated steady-state velocity (Vs), and the overall progress curves were used to obtain the average velocity (Va), by linear regression in both cases. The apparent final potency of inhibitor (Kiapp) was then calculated from Vs data, using the standard hyperbolic inhibition equation. The IC50 values were calculated from Va data using the sigmoidal inhibition equation. % inhibition values were calculated from Va values of inhibitor at 40 μM, and the average Va value of control reactions.
With `COc1ccc2cc(C(=O)O)ccc2c1CNCc1ccc(OC(F)(F)F)cc1` [Example 1, 6-Methoxy-5-({[4-(trifluoromethoxy)benzyl]amino}methyl)-2-naphthoic acid] the inhibition at 40 µM was 50%. With `COc1ccc2cc(C(=O)O)ccc2c1CNCc1ccc(S(N)(=O)=O)cc1` [Example 3, 5-({[4-(Aminosulfonyl)benzyl]amino}methyl)-6-methoxy-2-naphthoic acid] the inhibition at 40 µM was 23%. `O=C(O)COc1ccc2cc(C(=O)O)ccc2c1CNCc1ccc(OC(F)(F)F)cc1` [Example 5, 6-(Carboxymethoxy)-5-({[4-(trifluoromethoxy)benzyl]amino}methyl)-2-naphthoic acid] gave an inhibition at 40 µM of 38%. Compound `COc1ccc2cc(C(=O)O)ccc2c1CNCc1ccc(F)cc1` [Example 2, 5-{[(4-Fluorobenzyl)amino]methyl)-6-methoxy-2-naphthoic acid] has an inhibition at 40 µM of 37%. `COc1ccc2cc(C(=O)O)ccc2c1CNCc1ccc(N(C)C)cc1` [Example 4, 5-({[4-(Dimethylamino)benzyl]amino}methyl)-6-methoxy-2-naphthoic acid] showed an inhibition at 40 µM of 34%.

Test system: not given
Assay: not given
Settings: not given
In the case of `COc1ccc2cc(C(=O)O)ccc2c1CNCc1ccc(N(C)C)cc1` (as salt: salt) [Example 4, 5-({[4-(Dimethylamino)benzyl]amino}methyl)-6-methoxy-2-naphthoic acid], the melting point is reported as > 215 °C (dec.). Work on `COc1ccc2cc(C(=O)O)ccc2c1CNCc1ccc(OC(F)(F)F)cc1` (as salt: salt) [Example 1, 6-Methoxy-5-({[4-(trifluoromethoxy)benzyl]amino}methyl)-2-naphthoic acid] yielded a melting point of 235 to 237 °C. With `COc1ccc2cc(C(=O)O)ccc2c1CNCc1ccc(F)cc1` (as salt: salt) [Example 2, 5-{[(4-Fluorobenzyl)amino]methyl)-6-methoxy-2-naphthoic acid] the melting point was 268 to 270 °C (dec.). For `O=C(O)COc1ccc2cc(C(=O)O)ccc2c1CNCc1ccc(OC(F)(F)F)cc1` [Example 5, 6-(Carboxymethoxy)-5-({[4-(trifluoromethoxy)benzyl]amino}methyl)-2-naphthoic acid], the melting point was > 266 °C (dec.). In the case of `COc1ccc2cc(C(=O)O)ccc2c1CNCc1ccc(S(N)(=O)=O)cc1` (as salt: salt) [Example 3, 5-({[4-(Aminosulfonyl)benzyl]amino}methyl)-6-methoxy-2-naphthoic acid], the melting point is reported as 283 to 285 °C (dec.).
